Measured values published in the NIST ThermoML archive (doi:10.1007/s10765-011-1087-7).
± gives the expanded uncertainty stated by the source.

Test: xn = mol fraction of the nth substance listed
Details: 101 kPa, Liquid; for speed of sound: Pulse-echo method

## CCCCCCC(C)O (centres undefined) [2-octanol] + Clc1ccccc1Cl
303.15 K, x2 = 0.0721
  speed of sound: 1283.9 ± 1.3 m/s
  mass density: 837.79 ± 0.54 kg/m3
  viscosity: 4.223 ± 0.14 mPa·s
303.15 K, x2 = 0.1124
  speed of sound: 1281.6 ± 1.3 m/s
  mass density: 852.34 ± 0.51 kg/m3
  viscosity: 3.749 ± 0.12 mPa·s
303.15 K, x2 = 0.1868
  speed of sound: 1277.6 ± 1.3 m/s
  mass density: 880.15 ± 0.46 kg/m3
  viscosity: 3.115 ± 0.11 mPa·s
303.15 K, x2 = 0.2615
  speed of sound: 1273.5 ± 1.3 m/s
  mass density: 909.35 ± 0.4 kg/m3
  viscosity: 2.648 ± 0.09 mPa·s
303.15 K, x2 = 0.3223
  speed of sound: 1270.5 ± 1.3 m/s
  mass density: 934.11 ± 0.36 kg/m3
  viscosity: 2.342 ± 0.08 mPa·s
303.15 K, x2 = 0.3758
  speed of sound: 1267.9 ± 1.3 m/s
  mass density: 956.68 ± 0.32 kg/m3
  viscosity: 2.15 ± 0.074 mPa·s
303.15 K, x2 = 0.4495
  speed of sound: 1264.9 ± 1.3 m/s
  mass density: 989.05 ± 0.26 kg/m3
  viscosity: 1.942 ± 0.067 mPa·s
303.15 K, x2 = 0.512
  speed of sound: 1262.2 ± 1.3 m/s
  mass density: 1017.76 ± 0.28 kg/m3
  viscosity: 1.772 ± 0.062 mPa·s
303.15 K, x2 = 0.5923
  speed of sound: 1259.6 ± 1.3 m/s
  mass density: 1056.48 ± 0.36 kg/m3
  viscosity: 1.613 ± 0.057 mPa·s
303.15 K, x2 = 0.6557
  speed of sound: 1258 ± 1.3 m/s
  mass density: 1088.63 ± 0.43 kg/m3
  viscosity: 1.473 ± 0.052 mPa·s
303.15 K, x2 = 0.7312
  speed of sound: 1257 ± 1.3 m/s
  mass density: 1128.95 ± 0.51 kg/m3
  viscosity: 1.34 ± 0.048 mPa·s
303.15 K, x2 = 0.797
  speed of sound: 1256.7 ± 1.3 m/s
  mass density: 1166.05 ± 0.59 kg/m3
  viscosity: 1.253 ± 0.045 mPa·s
303.15 K, x2 = 0.8672
  speed of sound: 1257.9 ± 1.3 m/s
  mass density: 1207.93 ± 0.68 kg/m3
  viscosity: 1.201 ± 0.044 mPa·s
303.15 K, x2 = 0.9481
  speed of sound: 1261.6 ± 1.3 m/s
  mass density: 1259.5 ± 0.8 kg/m3
  viscosity: 1.223 ± 0.044 mPa·s
308.15 K, x2 = 0.0721
  speed of sound: 1266.6 ± 1.3 m/s
  mass density: 833.8 ± 0.54 kg/m3
  viscosity: 3.524 ± 0.12 mPa·s
308.15 K, x2 = 0.1124
  speed of sound: 1264 ± 1.3 m/s
  mass density: 848.27 ± 0.52 kg/m3
  viscosity: 3.227 ± 0.11 mPa·s
308.15 K, x2 = 0.1868
  speed of sound: 1260.1 ± 1.3 m/s
  mass density: 875.95 ± 0.47 kg/m3
  viscosity: 2.763 ± 0.093 mPa·s
308.15 K, x2 = 0.2615
  speed of sound: 1256.2 ± 1.3 m/s
  mass density: 905.03 ± 0.41 kg/m3
  viscosity: 2.38 ± 0.081 mPa·s
308.15 K, x2 = 0.3223
  speed of sound: 1253.3 ± 1.3 m/s
  mass density: 929.69 ± 0.37 kg/m3
  viscosity: 2.121 ± 0.073 mPa·s
308.15 K, x2 = 0.3758
  speed of sound: 1250.8 ± 1.3 m/s
  mass density: 952.17 ± 0.33 kg/m3
  viscosity: 1.933 ± 0.067 mPa·s
308.15 K, x2 = 0.4495
  speed of sound: 1247.6 ± 1.3 m/s
  mass density: 984.42 ± 0.27 kg/m3
  viscosity: 1.7 ± 0.06 mPa·s
308.15 K, x2 = 0.512
  speed of sound: 1245.4 ± 1.3 m/s
  mass density: 1013.02 ± 0.27 kg/m3
  viscosity: 1.532 ± 0.054 mPa·s
308.15 K, x2 = 0.5923
  speed of sound: 1242.9 ± 1.3 m/s
  mass density: 1051.57 ± 0.35 kg/m3
  viscosity: 1.362 ± 0.049 mPa·s
308.15 K, x2 = 0.6557
  speed of sound: 1241.5 ± 1.3 m/s
  mass density: 1083.59 ± 0.42 kg/m3
  viscosity: 1.243 ± 0.045 mPa·s
308.15 K, x2 = 0.7312
  speed of sound: 1240.5 ± 1.3 m/s
  mass density: 1123.75 ± 0.5 kg/m3
  viscosity: 1.157 ± 0.042 mPa·s
308.15 K, x2 = 0.797
  speed of sound: 1240.4 ± 1.3 m/s
  mass density: 1160.72 ± 0.58 kg/m3
  viscosity: 1.132 ± 0.041 mPa·s
308.15 K, x2 = 0.8672
  speed of sound: 1241.5 ± 1.3 m/s
  mass density: 1202.46 ± 0.67 kg/m3
  viscosity: 1.133 ± 0.041 mPa·s
308.15 K, x2 = 0.9481
  speed of sound: 1243.9 ± 1.3 m/s
  mass density: 1253.92 ± 0.78 kg/m3
  viscosity: 1.14 ± 0.042 mPa·s
